Experimental data from patent US9840509B2, “Heterocyclic compounds” (CADILA HEALTHCARE LIMITED, priority 2014, dated 2017).

Assays:
CYP 2C9 = target: T1, CYP 2C9 (Homo sapiens, UniProt P11712); experiment: CYP inhibition in human liver microsomes, 2C9; assay type: in vitro ADME; details: pH 7.4, @ 10 μM concn
T1 construct: from tissue; host or cells: human liver microsomes
Description: (§1) CYP Inhibition Studies: CYP inhibition studies were performed with test compounds, at two concentrations ([…] and 10 μM), using human liver microsomes (Yao, M., Zhu, M., Sinz, M. W., Zhang, H., Humphreys, W. F., Rodrigues, A. D and Dai, R., Journal of Pharmaceutical and Biomedical Analysis, 2007, 44, 211-223; Walsky, R. L and Obach, R. S., Drug Metab. Dispos., 2004, 32, 647-660). Human liver microsomes were mixed with 100 mM phosphate buffer (pH 7.4) and probe substrate and warmed to […] in microcentrifuge tubes. Aliquots of this mixture (499 μL) were transferred to each pre-labeled microcentrifuge tubes, followed by addition of the 1 μL of inhibitors (test compound/CYP-specific positive control inhibitor) or control solvent (DMSO). Aliquots of this mixture (90 μL) were transferred to each pre-labeled microcentrifuge tubes in duplicate. Final solvent concentrations were 0.2% (v/v) or less. Incubations were commenced with the addition of 10 μL NADPH stock (assay concentration, 1 mM) to a final incubation volume of 100 μL and incubated in shaking water bath (at 37° C. and 100 rpm), for the period defined in Tables 1. Incubations were terminated by addition of 400 μL of termination solvent (CH3CN) containing internal standard. The terminated samples were vortex-mixed, centrifuged at 10000 rpm for 5 min and supernatant transferred into HPLC vials for LC-MS/MS analysis to monitor metabolites produced by marker CYP reactions. […] Animals

CYP 2C19 = target: T2, CYP 2C19 (Homo sapiens, UniProt P33261); experiment: CYP inhibition in human liver microsomes, 2C19; assay type: in vitro ADME; details: pH 7.4, @ 10 μM concn
T2 construct: from tissue; host or cells: human liver microsomes
Description: as §1

CYP 2D6 = target: T3, CYP 2D6 (Homo sapiens, UniProt P10635); experiment: CYP inhibition in human liver microsomes, 2D6; assay type: in vitro ADME; details: pH 7.4, @ 10 μM concn
T3 construct: from tissue; host or cells: human liver microsomes
Description: as §1

[1] = target: T4, recombinant purified human BTK (Homo sapiens, UniProt Q06187); experiment: In vitro BTK kinase assay on ADP Glo platform; assay type: biochemical; details: 2 hr room temperature, read-out: In-vitro BTK inhibitory activity: IC50
T4 construct: purchased SignalChem, USA
Description: Testing of Compounds of the Invention Biological Studies: In vitro BTK Inhibitory Activity Assay:
In vitro BTK inhibitory activity of test compounds were screened using BTK kinase assay on ADP Glo platform (Li, H., Totoritis, R. D., Lor, L. A., Schwartz, B., Caprioli, P., Jurewicz, A. J and Zhang, G., Assay Drug Dev. Technol., 2009, 7(6), 598-605). Briefly, fixed amount of recombinant purified human BTK (3 ng/reaction from SignalChem, USA) were incubated with increasing concentration of test compounds, in 1× kinase reaction buffer (40 mM Tris-Cl, pH7.5, 20 mM MgCl2, 2 mM MnCl2, 0.1 mg/ml BSA and 50 μM DTT). Enzymatic reaction was initiated by adding a substrate cocktail containing 50 µM of ATP (final concentration) and […] of polyGln4Tyr1 (Signal Chem) in total 25 μl of reaction, in round bottom white 96 well plate. The reaction mixture was incubated at room temperature for 2 hr. After 2 hr of incubation, 10 μl of the reaction mix was mixed with […] of ADP Glo reagent, in another round bottom white 96 well plate and incubated at room temperature for 40 min. This was followed by addition of kinase detection reagent (20 μl per reaction) and incubation at room temperature for 30 min. Finally, plate was read for luminescence at an integration time of 500 millisecond per well. Data were plotted taking Enzyme with no inhibitor set as the 100% kinase activity and for dose response curve, % Kinase activity was plotted against conc on Log scale and IC50 was determined by non linear curve fitting method using GraphPad Prism software 6. The in vitro BTK inhibitory activity (IC50) for representative compounds are listed in […]

CYP 2C8 = target: T5, CYP 2C8 (Homo sapiens, UniProt P10632); experiment: CYP inhibition in human liver microsomes, 2C8; assay type: in vitro ADME; details: pH 7.4, @ 10 μM concn
T5 construct: from tissue; host or cells: human liver microsomes
T5 sequence (P10632 1-490): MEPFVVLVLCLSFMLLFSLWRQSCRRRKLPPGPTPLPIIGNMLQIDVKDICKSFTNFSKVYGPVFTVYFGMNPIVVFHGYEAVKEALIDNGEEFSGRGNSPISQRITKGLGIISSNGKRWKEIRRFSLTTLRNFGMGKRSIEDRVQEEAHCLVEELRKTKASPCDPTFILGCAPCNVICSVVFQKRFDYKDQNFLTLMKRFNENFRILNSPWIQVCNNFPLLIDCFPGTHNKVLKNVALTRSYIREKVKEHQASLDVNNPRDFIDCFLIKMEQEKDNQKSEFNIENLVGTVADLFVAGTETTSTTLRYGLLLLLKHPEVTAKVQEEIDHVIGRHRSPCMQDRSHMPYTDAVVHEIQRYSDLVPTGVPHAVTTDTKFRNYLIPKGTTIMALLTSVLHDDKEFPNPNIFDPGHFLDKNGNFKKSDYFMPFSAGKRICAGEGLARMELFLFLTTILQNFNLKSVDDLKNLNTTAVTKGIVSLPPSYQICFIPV
Description: as §1

CYP 1A2 = target: T6, CYP 1A2 (Homo sapiens, UniProt P05177); experiment: CYP inhibition in human liver microsomes, 1A2; assay type: in vitro ADME; details: pH 7.4, @ 10 μM concn
T6 construct: from tissue; host or cells: human liver microsomes
T6 sequence (P05177 1-516): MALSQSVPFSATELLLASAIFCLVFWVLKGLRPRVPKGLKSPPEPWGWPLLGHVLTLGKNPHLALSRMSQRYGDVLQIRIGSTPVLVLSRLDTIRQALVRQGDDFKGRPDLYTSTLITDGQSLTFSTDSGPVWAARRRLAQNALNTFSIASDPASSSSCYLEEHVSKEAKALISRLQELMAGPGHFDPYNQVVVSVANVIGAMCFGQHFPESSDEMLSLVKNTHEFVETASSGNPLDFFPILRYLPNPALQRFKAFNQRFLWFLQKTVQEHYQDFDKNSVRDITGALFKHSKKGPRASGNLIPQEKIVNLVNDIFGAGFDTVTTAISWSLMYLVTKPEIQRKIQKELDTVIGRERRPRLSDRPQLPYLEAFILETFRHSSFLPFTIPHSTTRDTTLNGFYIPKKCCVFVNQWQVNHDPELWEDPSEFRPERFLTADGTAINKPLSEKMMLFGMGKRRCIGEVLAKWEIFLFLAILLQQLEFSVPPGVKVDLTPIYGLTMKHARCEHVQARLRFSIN
Description: as §1

CYP 3A4 = target: T7, CYP 3A4 (Homo sapiens, UniProt P08684); experiment: CYP inhibition in human liver microsomes, 3A4; assay type: in vitro ADME; details: pH 7.4, @ 10 μM concn
T7 construct: from tissue; host or cells: human liver microsomes
Description: as §1

T7 sequence (P08684 whole entry): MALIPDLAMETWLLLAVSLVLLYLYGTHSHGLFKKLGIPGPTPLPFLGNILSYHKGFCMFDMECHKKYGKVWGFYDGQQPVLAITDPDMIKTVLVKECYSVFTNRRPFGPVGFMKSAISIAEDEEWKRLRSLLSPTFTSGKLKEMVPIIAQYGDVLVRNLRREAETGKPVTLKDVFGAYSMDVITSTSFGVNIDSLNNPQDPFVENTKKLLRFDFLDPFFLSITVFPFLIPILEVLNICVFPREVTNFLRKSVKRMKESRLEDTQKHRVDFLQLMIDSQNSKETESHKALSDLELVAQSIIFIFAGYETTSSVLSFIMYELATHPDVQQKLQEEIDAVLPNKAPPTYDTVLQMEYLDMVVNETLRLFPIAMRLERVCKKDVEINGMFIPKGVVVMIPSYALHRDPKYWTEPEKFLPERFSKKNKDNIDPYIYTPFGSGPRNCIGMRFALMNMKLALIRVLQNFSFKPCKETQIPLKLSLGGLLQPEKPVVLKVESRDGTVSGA
T3 sequence (P10635 whole entry): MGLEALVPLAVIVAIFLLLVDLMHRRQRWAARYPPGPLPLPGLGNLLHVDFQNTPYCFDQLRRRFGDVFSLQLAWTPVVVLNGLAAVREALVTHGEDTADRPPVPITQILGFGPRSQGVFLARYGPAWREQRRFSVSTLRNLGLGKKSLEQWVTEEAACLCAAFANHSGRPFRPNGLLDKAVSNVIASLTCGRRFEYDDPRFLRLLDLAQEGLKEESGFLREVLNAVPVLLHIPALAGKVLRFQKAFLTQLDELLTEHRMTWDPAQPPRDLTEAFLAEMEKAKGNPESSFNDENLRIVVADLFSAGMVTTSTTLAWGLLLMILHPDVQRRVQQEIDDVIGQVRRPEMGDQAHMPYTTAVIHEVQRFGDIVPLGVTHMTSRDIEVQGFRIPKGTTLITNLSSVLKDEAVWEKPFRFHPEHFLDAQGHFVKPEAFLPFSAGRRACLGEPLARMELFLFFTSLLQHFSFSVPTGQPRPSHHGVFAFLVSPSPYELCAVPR
T2 sequence (P33261 whole entry): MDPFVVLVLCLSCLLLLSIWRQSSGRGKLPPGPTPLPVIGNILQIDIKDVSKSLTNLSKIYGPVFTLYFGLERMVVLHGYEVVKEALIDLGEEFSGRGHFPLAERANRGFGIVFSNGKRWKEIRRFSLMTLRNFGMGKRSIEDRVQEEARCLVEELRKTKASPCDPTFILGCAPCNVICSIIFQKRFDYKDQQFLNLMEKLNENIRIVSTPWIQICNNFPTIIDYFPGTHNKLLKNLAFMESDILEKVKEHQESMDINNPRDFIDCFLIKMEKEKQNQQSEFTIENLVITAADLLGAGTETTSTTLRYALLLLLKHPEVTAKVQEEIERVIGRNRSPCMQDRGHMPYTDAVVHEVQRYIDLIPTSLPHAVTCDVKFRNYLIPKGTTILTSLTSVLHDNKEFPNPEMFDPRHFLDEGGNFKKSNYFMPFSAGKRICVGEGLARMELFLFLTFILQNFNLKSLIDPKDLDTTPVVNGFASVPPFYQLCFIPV
T4 sequence (Q06187 whole entry): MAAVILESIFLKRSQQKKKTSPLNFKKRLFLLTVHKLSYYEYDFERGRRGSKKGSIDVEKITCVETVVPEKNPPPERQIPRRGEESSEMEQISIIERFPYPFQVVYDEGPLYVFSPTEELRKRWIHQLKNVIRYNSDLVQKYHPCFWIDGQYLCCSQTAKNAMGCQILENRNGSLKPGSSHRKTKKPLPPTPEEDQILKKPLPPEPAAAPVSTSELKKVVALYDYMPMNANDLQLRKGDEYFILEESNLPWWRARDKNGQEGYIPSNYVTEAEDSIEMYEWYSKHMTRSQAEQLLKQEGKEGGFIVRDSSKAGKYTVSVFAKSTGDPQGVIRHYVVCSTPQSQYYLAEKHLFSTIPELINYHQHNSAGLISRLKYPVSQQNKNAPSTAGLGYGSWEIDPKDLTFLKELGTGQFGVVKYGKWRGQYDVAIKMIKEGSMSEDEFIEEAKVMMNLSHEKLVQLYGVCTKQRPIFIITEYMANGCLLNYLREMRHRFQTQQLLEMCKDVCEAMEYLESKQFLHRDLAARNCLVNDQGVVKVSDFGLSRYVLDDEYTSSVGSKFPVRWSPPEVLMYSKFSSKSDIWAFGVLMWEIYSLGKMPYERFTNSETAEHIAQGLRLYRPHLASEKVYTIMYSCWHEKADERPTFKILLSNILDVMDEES
T1 sequence (P11712 whole entry): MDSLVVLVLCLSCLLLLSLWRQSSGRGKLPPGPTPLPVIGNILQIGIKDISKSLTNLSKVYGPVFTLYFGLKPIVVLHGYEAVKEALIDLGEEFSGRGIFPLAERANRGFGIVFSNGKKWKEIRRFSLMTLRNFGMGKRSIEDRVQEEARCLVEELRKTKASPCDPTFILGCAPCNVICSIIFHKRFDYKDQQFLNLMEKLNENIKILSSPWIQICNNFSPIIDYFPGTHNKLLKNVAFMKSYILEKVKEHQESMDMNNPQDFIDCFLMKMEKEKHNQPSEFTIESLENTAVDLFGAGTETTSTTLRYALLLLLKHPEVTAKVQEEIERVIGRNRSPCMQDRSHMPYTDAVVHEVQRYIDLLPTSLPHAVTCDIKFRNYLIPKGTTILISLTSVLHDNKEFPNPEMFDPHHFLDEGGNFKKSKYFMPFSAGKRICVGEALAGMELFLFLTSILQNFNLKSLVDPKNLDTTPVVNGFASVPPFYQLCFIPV

Structure (SMILES)	inhibition at 10 μM (CYP 2C9) [%]	inhibition at 10 μM (CYP 2C19) [%]	inhibition at 10 μM (CYP 2D6) [%]	IC50 [1] [nM]	inhibition at 10 μM (CYP 2C8) [%]	inhibition at 10 μM (CYP 1A2) [%]	inhibition at 10 μM (CYP 3A4) [%]
C=CC(=O)N1CC2CC(n3nc(-c4ccc5ocnc5c4)c4c(N)ncnc43)CC2C1 (centres unmarked) [Compound 22, 1-(5-(4-amino-3-(benzo[d]oxazol-5-yl)-1H-pyrazolo[3,4-d]pyrimidin-1-yl)hexahydrocyclopenta[c]pyrrol-2(1H)-yl)prop-2-en-1-one]	< 50	< 50	> 50	40	< 50	< 50	< 50
C=CC(=O)N1CC2CC(n3nc(-c4ccc5oc(-c6ccccc6)nc5c4)c4c(N)ncnc43)CC2C1 (centres unmarked) [Compound 23, 1-(5-(4-amino-3-(2-phenylbenzo[d]oxazol-5-yl)-1H-pyrazolo[3,4-d]pyrimidin-1-yl)hexahydrocyclopenta[c]pyrrol-2(1H)-yl)prop-2-en-1-one]	> 50	< 50	< 50	48	> 50	< 50	> 50
CN(C)C/C=C/C(=O)N1CC2CC(n3nc(-c4ccc(Oc5ccccc5)cc4)c4c(N)ncnc43)CC2C1 (centres unmarked) [Compound 24, (E)-1-(5-(4-amino-3-(4-phenoxyphenyl)-1H-pyrazolo[3,4-d]pyrimidin-1-yl)hexahydrocyclopenta[c]pyrrol-2(1H)-yl)-4-(dimethylamino)but-2-en-1-one]	< 50	< 50	< 50	2.5	< 50	< 50	< 50
C=CC(=O)N1CC2CC(n3nc(-c4ccc(-c5nnc(-c6ccccn6)o5)cc4)c4c(N)ncnc43)CC2C1 (centres unmarked) [Compound 26, 1-(5-(4-amino-3-(4-(5-(pyridin-2-yl)-1,3,4-oxadiazol-2-yl)phenyl)-1H-pyrazolo[3,4-d]pyrimidin-1-yl)hexahydrocyclopenta[c]pyrrol-2(1H)-yl)prop-2-en-1-one]	< 50	< 50	< 50	1.1	< 50	< 50	< 50
C=CC(=O)N1CC2CC(n3c(Br)c(-c4ccc(Oc5ccccc5)cc4)c4c(N)ncnc43)CC2C1 (centres unmarked) [Compound 27, 1-(5-(4-amino-6-bromo-5-(4-phenoxyphenyl)-7H-pyrrolo[2,3-d]pyrimidin-7-yl)hexahydrocyclopenta[c]pyrrol-2(1H)-yl)prop-2-en-1-one]	< 50	< 50	< 50	1.6	< 50	< 50	< 50
N#C/C(=C\C1CC1)C(=O)N1CC2CC(n3nc(-c4ccc(Oc5ccccc5)cc4)c4c(N)ncnc43)CC2C1 (centres unmarked) [Compound 28, (E)-2-(5-(4-amino-3-(4-phenoxyphenyl)-1H-pyrazolo[3,4-d]pyrimidin-1-yl)octahydrocyclopenta[c]pyrrole-2-carbonyl)-3-cyclopropylacrylonitrile]	> 50	< 50	< 50	16	< 50	< 50	> 50
C=CC(=O)N1CC2CC(n3nc(-c4ccc(C(=O)Nc5cc(C)ccn5)c(OC)c4)c4c(N)ncnc43)CC2C1 (centres unmarked) [Compound 29, 4-(1-(2-acryloyloctahydrocyclopenta[c]pyrrol-5-yl)-4-amino-1H-pyrazolo[3,4-d]pyrimidin-3-yl)-2-methoxy-N-(4-methylpyridin-2-yl)benzamide]	< 50	< 50	< 50	1.2	< 50	< 50	< 50
C=CC(=O)N1CC2CC(n3nc(-c4ccc(C(=O)Nc5cc(C)ccn5)cc4)c4c(N)ncnc43)CC2C1 (centres unmarked) [Compound 30, 4-(1-(2-acryloyloctahydrocyclopenta[c]pyrrol-5-yl)-4-amino-1H-pyrazolo[3,4-d]pyrimidin-3-yl)-N-(4-methylpyridin-2-yl)benzamide]	< 50	< 50	< 50	6	< 50	< 50	< 50
C=CC(=O)N1CC2CC(n3cc(-c4ccc(Oc5ccccc5)cc4)c4c(N)ncnc43)CC2C1 (centres unmarked) [Compound 31, 1-(5-(4-amino-5-(4-phenoxyphenyl)-7H-pyrrolo[2,3-d]pyrimidin-7-yl)hexahydrocyclopenta[c]pyrrol-2(1H)-yl)prop-2-en-1-one]	< 50	< 50	< 50	0.6	< 50	< 50	< 50
C=CS(=O)(=O)N1CC2CC(n3c(=O)n(-c4ccc(Oc5ccccc5)cc4)c4c(N)ncnc43)CC2C1 (centres unmarked) [Compound 33, 6-amino-7-(4-phenoxyphenyl)-9-(2-(vinylsulfonyl)octahydrocyclopenta[c]pyrrol-5-yl)-7H-purin-8(9H)-one]	< 50	< 50	< 50	1.5	< 50	< 50	< 50
C=CC(=O)N1CC2CC(n3nc(-c4ccc(C(=O)Nc5nc6ccccc6s5)cc4)c4c(N)ncnc43)CC2C1 (centres unmarked) [Compound 34, 4-(1-(2-acryloyloctahydrocyclopenta[c]pyrrol-5-yl)-4-amino-1H-pyrazolo[3,4-d]pyrimidin-3-yl)-N-(benzo[d]thiazol-2-yl)benzamide]	< 50	> 50	< 50	359	< 50	> 50	> 50
